Data reported in US20240376129A1, “METALLODRUG THERAPEUTIC COMPOUNDS AND PRODRUGS OF METALLODRUG THERAPEUTIC COMPOUNDS” (Dublin City University, priority 2021, published 2024).

Experiments:
[1] = system: supercoiled pUC19 DNA; assay: DNA condensation of supercoiled pUC19 by gel electrophoresis; assay type: biochemical; details: for DNA condensation activity: supercoiled pUC19, at 100 μM; for DNA condensation / aggregation effect: supercoiled pUC19, tested at 100 and 500 μM, 37° C., 90 min
Protocol: Preparation of solutions. Tri-Click samples were initially prepared in DMF and further diluted in HEPES buffer (80 mM). Metal complexes of the Tri-Click series were prepared in-situ by co-incubating with copper(II) nitrate trihydrate, manganese (II) chloride tetrahydrate or zinc(II) acetate dihydrate for 30 min at 37° C. prior to DNA addition.
DNA nuclease and condensation studies. Reactions were carried out in 80 mM HEPES (pH 7.4) unless otherwise stated and followed the general procedure: a total volume of 20 μL with 25 mM NaCl, 400 ng pUC19 at varying concentrations of test compounds (0.25-500 μM) were incubated at 37° C. for either 90 min, 6 h, 12 h or 24 h. Reactions were quenched by adding 6× loading buffer (Fermentas) containing 10 mM Tris-HCl, 0.03% bromophenol blue, 0.03% xylene cyanole FF, 60% glycerol, 60 mM EDTA and samples were loaded onto an agarose gel (1.2%) containing 4 μL EtBr. Electrophoresis was completed at 70 V for 1 h in 1×TAE buffer. DNA studies conducted in the presence of reductant were supplemented with 1 mM Na-L-ascorbate and incubated at 37° C. for 30 min. Electrophoresis was carried out at 70 V for 90 minutes in 1×TAE buffer and photographed using a UV transilluminator.
The DNA recognition properties of the TC series, along with the control compounds, were probed using electrophoresis experiments with supercoiled pUC19 DNA. TC1 was examined across a wide concentration range and found to condense DNA at high concentrations between 250 and 500 μM (FIG. 2a, lanes 11-13).

[2] = system: calf-thymus DNA (ctDNA); assay: Competitive ethidium bromide displacement assay, calf-thymus DNA; assay type: binding
Protocol: (§1) Competitive ethidium bromide displacement assay. The DNA binding affinity of the tripodal series was determined over a 2 h time period using calf-thymus DNA and synthetic alternating co-polymers poly[d(A-T)2)] and poly[d(G-C)2] by ethidium bromide fluorescence quenching in a similar manner to the high throughput method previously reported by Kellett et al. (McCann, M., McGinley, J., Ni, K., O'Connor, M., Kavanagh, K., McKee, V., Colleran, J., Devereux, M., Gathergood, N., Barron, N. et al. (2013) A new phenanthroline-oxazine ligand: synthesis, coordination chemistry and atypical DNA binding interaction. Chem. Commun., 49, 2341-2343). Each drug concentration was measured in triplicate, on at least two separate occasions, and the apparent binding constants were calculated using Kapp=Ke×12.6/C50 where Ke=9.5×10^6 M^−1.

[3] = system: poly[d(A-T)2]; assay: Competitive ethidium bromide displacement assay, poly[d(A-T)2]; assay type: binding; details: A-T duplex polymer, EtBr displacement
Protocol: as §1

[4] = system: poly[d(G-C)2]; assay: Competitive ethidium bromide displacement assay, poly[d(G-C)2]; assay type: binding; details: EtBr displacement
Protocol: as §1

Molecule | DNA condensation activity [1] | DNA condensation / aggregation effect [1] | other results
2,4,6-Tris-(1,2-ethanediamine)-mesitylene [T2] | highly active | – | –
2,4,6-Tris-(1,3-propanediamine)-mesitylene [T3] | highly active | – | –
Cc1c(Cn2cc(-c3cccc(N(C)C)c3)nn2)c(C)c(Cn2cc(-c3cccc(N(C)C)c3)nn2)c(C)c1Cn1cc(-c2cccc(N(C)C)c2)nn1 [TC6, Tri-Click 3-ethynyl-N,N-dimethylaniline] | – | slight aggregation effects | –
Cc1c(Cn2cc(CN)nn2)c(C)c(Cn2cc(CN)nn2)c(C)c1Cn1cc(CN)nn1 [TC1, Tri-Click propargylamine] | – | – | apparent DNA binding constant (Kapp) ([2]; ctDNA, EtBr displacement): ~10^6 M^−1; binding affinity to duplex DNA (summary) ([2]; duplex DNA, conclusion summary over ctDNA and co-polymers): 10^5-10^6 M^−1; apparent DNA binding constant (Kapp) [3]: ~10^6 M^−1; apparent DNA binding constant (Kapp) [4]: ~10^5 M^−1
Cc1c(CN)c(C)c(CN)c(C)c1CN [T1, 2,4,6-Tris-(aminomethyl)-mesitylene] | – | mildly condense pUC19 | –
Cc1c(Cn2cc(-c3ccc(N(C)C)cc3)nn2)c(C)c(Cn2cc(-c3ccc(N(C)C)cc3)nn2)c(C)c1Cn1cc(-c2ccc(N(C)C)cc2)nn1 [TC7, Tri-Click 4-ethynyl-N,N-dimethylaniline] | – | slight aggregation effects | –
